Laboratory results: US20070128217A1 (priority 2003, published 2007)

Tests used:
[1] = system: rabbit serum obtained by immunizing a rabbit with the SARS-CoV strain Frankfurt 1; format: binding; set-up: Binding of a rabbit serum to linear peptides / Binding of a rabbit serum to looped peptides / Rabbit serum linear peptides / Rabbit serum looped peptides / Binding of a rabbit serum to linear peptides of protein N of SARS-CoV Urbani (Rabbit serum linear peptides) / Binding of a rabbit serum to looped/cyclic peptides of protein N of SARS-CoV Urbani (Rabbit serum looped peptides): unit not given here
[2] = system: recombinant human anti-SARS-CoV antibody 03-018; format: binding; set-up: Binding of antibody 03-018 to linear peptides of the N protein of SARS-CoV Urbani / Binding of antibody 03-018 to looped/cyclic peptides of the N protein of SARS-CoV Urbani: unit not given here
[3] = system: control sera (pooled serum of ten healthy LUMC hospital workers; commercial negative donor pooled serum from the Dutch bloodbank); format: binding, human; set-up: Binding of Control serum LUMC to linear peptides / Binding of Control serum Blood-bank to linear peptides / Binding of Control serum LUMC to looped peptides / Binding of Control Serum Blood-Bank to Looped peptides / Binding of Control serum LUMC to linear peptides of the protein M of SARS-CoV Urbani / Binding of Control serum Blood-bank to linear peptides of the protein M of SARS-CoV Urbani / Binding of Control serum LUMC to looped peptides of the protein M of SARS-CoV Urbani / Binding of Control Serum Blood-Bank to Looped peptides of the protein M of SARS-CoV Urbani: unit not given here
[4] = system: antibodies in sera from SARS patients (sera 1a, 1b, 2, 6, 37, 62, London, SARS-yellow, SARS-green); format: binding, human; set-up: Binding of serum 6 to linear peptides of protein X1 of SARS-CoV Urbani / Binding of serum 37 to linear peptides of protein X1 of SARS-CoV Urbani / Binding of serum 6 to looped/cyclic peptide (PEPSCAN-ELISA) / Binding of serum 37 to looped/cyclic peptide (PEPSCAN-ELISA) / Binding of serum 37 to looped/cyclic peptides of protein X1 of SARS-CoV Urbani / Binding of serum 6 to linear peptides of protein X2 / Binding of serum 37 to linear peptides of protein X2 / Binding of serum 37 to looped/cyclic peptides of protein X2 of SARS-CoV Urbani / Binding of serum 6 to linear peptides of protein M of SARS-CoV Urbani / Binding of serum 37 to linear peptides of protein M of SARS-CoV Urbani / Binding of serum 6 to looped/cyclic peptides of protein M of SARS-CoV Urbani / Binding of serum 37 to looped/cyclic peptides of protein M of SARS-CoV Urbani / Binding of serum 6 to linear peptides of protein X3 of SARS-CoV Urbani / Binding of serum 37 to linear peptides of protein X3 of SARS-CoV Urbani / Binding of serum 37 to looped/cyclic peptides of protein X3 of SARS-CoV Urbani / Binding of serum 6 to linear peptides of protein X4 of SARS-CoV Urbani / Binding of serum 37 to linear peptides of protein X4 of SARS-CoV Urbani / Binding of serum 37 to looped/cyclic peptides of protein X4 of SARS-CoV Urbani / Binding of serum 6 to linear peptides of protein X5 of SARS-CoV Urbani / Binding of serum 37 to linear peptides of protein X5 of SARS-CoV Urbani / Binding of serum 37 to looped/cyclic peptides of protein X5 of SARS-CoV Urbani / Binding of serum 6 to linear peptides of protein N of SARS-CoV Urbani / Binding of serum 37 to linear peptides of protein N of SARS-CoV Urbani / Binding of serum 6 to linear peptide (PEPSCAN-ELISA) / Binding of serum 1a to looped/cyclic peptides of protein N of SARS-CoV Urbani / Binding of serum 1b to looped/cyclic peptides of protein N of SARS-CoV Urbani / Binding of serum 2 to looped/cyclic peptides of protein N of SARS-CoV Urbani / Binding of serum 6 to looped/cyclic peptides of protein N of SARS-CoV Urbani / Binding of serum 37 to looped/cyclic peptides of protein N of SARS-CoV Urbani / Binding of serum 62 to looped/cyclic peptides of protein N of SARS-CoV Urbani / Binding of serum London to looped/cyclic peptides of protein N of SARS-CoV Urbani / Binding of serum SARS-green to looped/cyclic peptides of protein N of SARS-CoV Urbani: unit not given here

Row | Sequence | Binding of a rabbit serum to linear peptides of protein N of SARS-CoV Urbani (Rabbit serum linear peptides) [1] | Binding of a rabbit serum to looped/cyclic peptides of protein N of SARS-CoV Urbani (Rabbit serum looped peptides) [1] | Binding of antibody 03-018 to linear peptides of the N protein of SARS-CoV Urbani [2] | Binding of antibody 03-018 to looped/cyclic peptides of the N protein of SARS-CoV Urbani [2] | Binding of Control Serum Blood-Bank to Looped peptides [3] | Binding of Control serum Blood-bank to linear peptides [3] | Binding of Control serum LUMC to linear peptides [3] | Binding of Control serum LUMC to looped peptides [3] | Recognition of the peptide by the rabbit serum [1] | Binding of serum 1a to linear peptide (PEPSCAN-ELISA) [4] | Binding of serum 1a to looped/cyclic peptides of protein N of SARS-CoV Urbani [4] | Binding of serum 1b to linear peptide (PEPSCAN-ELISA) [4] | Binding of serum 1b to looped/cyclic peptides of protein N of SARS-CoV Urbani [4] | Binding of serum 2 to linear peptide (PEPSCAN-ELISA) [4] | Binding of serum 2 to looped/cyclic peptides of protein N of SARS-CoV Urbani [4] | Binding of serum 6 to linear peptide (PEPSCAN-ELISA) [4] | Binding of serum 6 to looped/cyclic peptides of protein N of SARS-CoV Urbani [4] | Binding of serum 37 to linear peptide (PEPSCAN-ELISA) [4] | Binding of serum 37 to looped/cyclic peptides of protein N of SARS-CoV Urbani [4] | Binding of serum 62 to linear peptide (PEPSCAN-ELISA) [4] | other results
1 | TTLPKGFYAEGSRGG | 0.2 | 0.4 | 0.1 | 0.2 | 0.6 | 0.6 | 0.7 | 0.5 |  |  |  |  |  |  |  |  |  |  |  |  | 
2 | PGSSRGNSPARMASG |  |  | 0.1 | 0.3 |  |  |  |  | recognized | 0.3 | 0.4 | 0.2 | 0.2 | 0.3 | 0.5 | 0.2 | 0.4 | 0.6 | 0.6 | 0.6 | Binding of serum 62 to looped/cyclic peptides of protein N of SARS-CoV Urbani [4]: 0.6; Binding of serum London to linear peptide (PEPSCAN-ELISA) [4]: 0.5; Binding of serum London to looped/cyclic peptides of protein N of SARS-CoV Urbani [4]: 0.5; Binding of serum SARS-green to linear peptide (PEPSCAN-ELISA) [4]: 0.5; Binding of serum SARS-green to looped/cyclic peptides of protein N of SARS-CoV Urbani [4]: 0.5; Binding of serum SARS-yellow to linear peptide (PEPSCAN-ELISA) [4]: 0.7; Binding of serum SARS-yellow to looped/cyclic peptides of protein N of SARS-CoV Urbani [4]: 0.4
3 | SPARMASGGGETALA | 0.2 | 0.0 | 0.1 | 0.1 | 0.1 | 0.9 | 0.8 | 0.2 |  |  |  |  |  |  |  |  |  |  |  |  | 
4 | PARMASGGGETALAL | 0.2 | 0.7 | 0.1 | 0.3 | 0.7 | 1.0 | 0.8 | 0.9 |  |  |  |  |  |  |  |  |  |  |  |  | 
5 | NSTPGSSRGNSPARM |  |  | 0.2 | 0.3 |  |  |  |  | recognized | 0.7 | 0.8 | 0.5 | 0.7 | 0.4 | 0.6 | 0.6 | 0.4 | 1.2 | 0.6 | 1.2 | Binding of serum 62 to looped/cyclic peptides of protein N of SARS-CoV Urbani [4]: 0.6; Binding of serum London to linear peptide (PEPSCAN-ELISA) [4]: 1.6; Binding of serum London to looped/cyclic peptides of protein N of SARS-CoV Urbani [4]: 0.5; Binding of serum SARS-green to linear peptide (PEPSCAN-ELISA) [4]: 1.8; Binding of serum SARS-green to looped/cyclic peptides of protein N of SARS-CoV Urbani [4]: 0.4; Binding of serum SARS-yellow to linear peptide (PEPSCAN-ELISA) [4]: 1.5; Binding of serum SARS-yellow to looped/cyclic peptides of protein N of SARS-CoV Urbani [4]: 0.4
6 | TPGSSRGNSPARMAS |  |  | 0.1 | 0.3 |  |  |  |  | recognized | 0.3 | 0.4 | 0.2 | 0.2 | 0.3 | 0.5 | 0.2 | 0.4 | 0.8 | 0.6 | 0.7 | Binding of serum 62 to looped/cyclic peptides of protein N of SARS-CoV Urbani [4]: 0.6; Binding of serum London to linear peptide (PEPSCAN-ELISA) [4]: 0.5; Binding of serum London to looped/cyclic peptides of protein N of SARS-CoV Urbani [4]: 0.5; Binding of serum SARS-green to linear peptide (PEPSCAN-ELISA) [4]: 0.6; Binding of serum SARS-green to looped/cyclic peptides of protein N of SARS-CoV Urbani [4]: 0.4; Binding of serum SARS-yellow to linear peptide (PEPSCAN-ELISA) [4]: 0.8; Binding of serum SARS-yellow to looped/cyclic peptides of protein N of SARS-CoV Urbani [4]: 0.5
